Measurements published in ChEMBL document CHEMBL3045792, “Synthesis, antimicrobial activity, and molecular modeling of novel 4-(3-(4-benzylpiperazin-1-yl)propoxy)-7-methoxy-3-substituted phenyl-2H-chromen-2-one” (2013).
Calls of active or inactive are those of the source. No cut-off for these calls is given here.

Tests used:
Type in all cases: functional
Priestia megaterium [1] = assay: Antibacterial activity against Bacillus megaterium assessed as growth inhibition at 600 ug/ml by NCCLS […] method; conditions: read-out: IZ
Colletotrichum falcatum [2] = assay: Antifungal activity against Glomerella tucumanensis assessed as growth inhibition at 600 ug/ml; conditions: read-out: IZ
Proteus mirabilis [3] = assay: Antibacterial activity against Proteus mirabilis assessed as growth inhibition at 900 ug/ml by NCCLS […] method; conditions: read-out: IZ
Proteus vulgaris [4] = assay: Antibacterial activity against Proteus vulgaris assessed as growth inhibition at 600 ug/ml by NCCLS […] method; conditions: read-out: IZ
Staphylococcus aureus [5] = assay: Antibacterial activity against Staphylococcus aureus assessed as growth inhibition at 900 ug/ml by NCCLS […] method; conditions: read-out: IZ
Candida albicans [6] = assay: Antifungal activity against Candida albicans assessed as growth inhibition at 300 ug/ml; conditions: read-out: IZ
Candida albicans [7] = assay: Antifungal activity against Candida albicans assessed as growth inhibition at 600 ug/ml; conditions: read-out: IZ
Exserohilum rostratum [8] = assay: Antifungal activity against Setosphaeria rostrata assessed as growth inhibition at 300 ug/ml; conditions: read-out: IZ
Priestia megaterium [9] = assay: Antibacterial activity against Bacillus megaterium assessed as growth inhibition at 900 ug/ml by NCCLS […] method; conditions: read-out: IZ
Exserohilum rostratum [10] = assay: Antifungal activity against Setosphaeria rostrata assessed as growth inhibition at 600 ug/ml; conditions: read-out: IZ
Streptococcus pyogenes [11] = assay: Antibacterial activity against Streptococcus pyogenes assessed as growth inhibition at 600 ug/ml by NCCLS […] method; conditions: read-out: IZ
Colletotrichum falcatum [12] = assay: Antifungal activity against Glomerella tucumanensis assessed as growth inhibition at 300 ug/ml; conditions: read-out: IZ
Bacillus pumilus [13] = assay: Antibacterial activity against Bacillus pumilus assessed as growth inhibition at 600 ug/ml by NCCLS […] method; conditions: read-out: IZ
Escherichia coli [14] = assay: Antibacterial activity against Escherichia coli assessed as growth inhibition at 600 ug/ml by NCCLS […] method; conditions: read-out: IZ
Bacillus subtilis [15] = assay: Antibacterial activity against Bacillus subtilis assessed as growth inhibition at 600 ug/ml by NCCLS […] method; conditions: read-out: IZ
Proteus mirabilis [16] = assay: Antibacterial activity against Proteus mirabilis assessed as growth inhibition at 600 ug/ml by NCCLS […] method; conditions: read-out: IZ
Bacillus pumilus [17] = assay: Antibacterial activity against Bacillus pumilus assessed as growth inhibition at 900 ug/ml by NCCLS […] method; conditions: read-out: IZ
Staphylococcus aureus [18] = assay: Antibacterial activity against Staphylococcus aureus assessed as growth inhibition at 600 ug/ml by NCCLS […] method; conditions: read-out: IZ
Fusarium oxysporum [19] = assay: Antifungal activity against Fusarium oxysporum assessed as growth inhibition at 600 ug/ml; conditions: read-out: IZ
Streptococcus pyogenes [20] = assay: Antibacterial activity against Streptococcus pyogenes assessed as growth inhibition at 900 ug/ml by NCCLS […] method; conditions: read-out: IZ
Klebsiella aerogenes [21] = assay: Antibacterial activity against Enterobacter aerogenes assessed as growth inhibition at 900 ug/ml by NCCLS […] method
Exserohilum rostratum [22] = assay: Antifungal activity against Setosphaeria rostrata assessed as growth inhibition at 900 ug/ml; conditions: read-out: IZ
Klebsiella aerogenes [23] = assay: Antibacterial activity against Enterobacter aerogenes assessed as growth inhibition at 600 ug/ml by NCCLS […] method
Candida albicans [24] = assay: Antifungal activity against Candida albicans assessed as growth inhibition at 1200 ug/ml; conditions: read-out: IZ
Fusarium oxysporum [25] = assay: Antifungal activity against Fusarium oxysporum assessed as growth inhibition at 1200 ug/ml; conditions: read-out: IZ
Colletotrichum falcatum [26] = assay: Antifungal activity against Glomerella tucumanensis assessed as growth inhibition at 900 ug/ml; conditions: read-out: IZ
Fusarium oxysporum [27] = assay: Antifungal activity against Fusarium oxysporum assessed as growth inhibition at 900 ug/ml; conditions: read-out: IZ
Exserohilum rostratum [28] = assay: Antifungal activity against Setosphaeria rostrata assessed as growth inhibition at 1200 ug/ml; conditions: read-out: IZ
Klebsiella pneumoniae [29] = assay: Antibacterial activity against Klebsiella pneumoniae assessed as growth inhibition at 600 ug/ml by NCCLS […] method; conditions: read-out: IZ
Fusarium oxysporum [30] = assay: Antifungal activity against Fusarium oxysporum assessed as growth inhibition at 300 ug/ml; conditions: read-out: IZ
Colletotrichum falcatum [31] = assay: Antifungal activity against Glomerella tucumanensis assessed as growth inhibition at 1200 ug/ml; conditions: read-out: IZ
Bacillus subtilis [32] = assay: Antibacterial activity against Bacillus subtilis assessed as growth inhibition at 900 ug/ml by NCCLS […] method; conditions: read-out: IZ
Candida albicans [33] = assay: Antifungal activity against Candida albicans assessed as growth inhibition at 900 ug/ml; conditions: read-out: IZ
Proteus vulgaris [34] = assay: Antibacterial activity against Proteus vulgaris assessed as growth inhibition at 900 ug/ml by NCCLS […] method; conditions: read-out: IZ
Escherichia coli [35] = assay: Antibacterial activity against Escherichia coli assessed as growth inhibition at 900 ug/ml by NCCLS […] method; conditions: read-out: IZ
Klebsiella pneumoniae [36] = assay: Antibacterial activity against Klebsiella pneumoniae assessed as growth inhibition at 900 ug/ml by NCCLS […] method; conditions: read-out: IZ

Row | Compound | zone of inhibition at 600 µg/mL (Priestia megaterium [1]) [mm] | zone of inhibition at 600 µg/mL (Colletotrichum falcatum [2]) [mm] | zone of inhibition at 900 µg/mL (Proteus mirabilis [3]) [mm] | zone of inhibition at 600 µg/mL (Proteus vulgaris [4]) [mm] | zone of inhibition at 900 µg/mL (Staphylococcus aureus [5]) [mm] | zone of inhibition at 300 µg/mL (Candida albicans [6]) [mm] | zone of inhibition at 600 µg/mL (Candida albicans [7]) [mm] | zone of inhibition at 300 µg/mL (Exserohilum rostratum [8]) [mm] | zone of inhibition at 900 µg/mL (Priestia megaterium [9]) [mm] | zone of inhibition at 600 µg/mL (Exserohilum rostratum [10]) [mm] | zone of inhibition at 600 µg/mL (Streptococcus pyogenes [11]) [mm] | zone of inhibition at 300 µg/mL (Colletotrichum falcatum [12]) [mm] | zone of inhibition at 600 µg/mL (Bacillus pumilus [13]) [mm] | zone of inhibition at 600 µg/mL (Escherichia coli [14]) [mm] | zone of inhibition at 600 µg/mL (Bacillus subtilis [15]) [mm] | zone of inhibition at 600 µg/mL (Proteus mirabilis [16]) [mm] | zone of inhibition at 900 µg/mL (Bacillus pumilus [17]) [mm] | zone of inhibition at 600 µg/mL (Staphylococcus aureus [18]) [mm] | zone of inhibition at 600 µg/mL (Fusarium oxysporum [19]) [mm] | zone of inhibition at 900 µg/mL (Streptococcus pyogenes [20]) [mm] | further results
1 | COc1ccc2c(OCCCN3CCN(Cc4ccc(F)cc4F)CC3)c(-c3ccccc3)c(=O)oc2c1 | 4.48 | 5.56 | 4.29 | 4.2 | 6.48 | 2.25 | 4.5 | 5.02 | 8.98 | 7.68 | 5.3 | 3.24 | 5.02 | 2.6 | 5.3 | 2.65 | 10.7 | 3.41 | 8.56 | 10.2 | growth inhibition (GI) (Klebsiella aerogenes [21]): inactive; zone of inhibition at 900 µg/mL (Exserohilum rostratum [22]): 14.2 mm; growth inhibition (GI) (Klebsiella aerogenes [23]): inactive; zone of inhibition at 1200 µg/mL (Candida albicans [24]): 18.2 mm; zone of inhibition at 1200 µg/mL (Fusarium oxysporum [25]): 28.1 mm; zone of inhibition at 900 µg/mL (Colletotrichum falcatum [26]): 13.6 mm; zone of inhibition at 900 µg/mL (Fusarium oxysporum [27]): 16.9 mm; zone of inhibition at 1200 µg/mL (Exserohilum rostratum [28]): 26.8 mm; zone of inhibition at 600 µg/mL (Klebsiella pneumoniae [29]): 3.24 mm; zone of inhibition at 300 µg/mL (Fusarium oxysporum [30]): 4.2 mm; zone of inhibition at 1200 µg/mL (Colletotrichum falcatum [31]): 25.9 mm; zone of inhibition at 900 µg/mL (Bacillus subtilis [32]): 10.7 mm; zone of inhibition at 900 µg/mL (Candida albicans [33]): 9.6 mm; zone of inhibition at 900 µg/mL (Proteus vulgaris [34]): 8.02 mm; zone of inhibition at 900 µg/mL (Escherichia coli [35]): 4.8 mm; zone of inhibition at 900 µg/mL (Klebsiella pneumoniae [36]): 6.34 mm
2 | COc1ccc2c(OCCCN3CCN(Cc4ccc(Cl)cc4Cl)CC3)c(-c3ccccc3)c(=O)oc2c1 | 6.3 | 6.5 | 9.01 | 4.02 | 12 | 2.01 | 4.89 | 2.89 | 12 | 5.76 | 3.27 | 3.25 | 2.01 | 7.02 | 9.02 | 4.91 | 4.28 | 6.5 | 6.25 | 6.25 | zone of inhibition at 900 µg/mL (Klebsiella aerogenes [21]; read-out: IZ): 8.08 mm; zone of inhibition at 900 µg/mL (Exserohilum rostratum [22]): 11.6 mm; zone of inhibition at 600 µg/mL (Klebsiella aerogenes [23]; read-out: IZ): 4.25 mm; zone of inhibition at 1200 µg/mL (Candida albicans [24]): 17.2 mm; zone of inhibition at 1200 µg/mL (Fusarium oxysporum [25]): 25.8 mm; zone of inhibition at 900 µg/mL (Colletotrichum falcatum [26]): 13.8 mm; zone of inhibition at 900 µg/mL (Fusarium oxysporum [27]): 13.6 mm; zone of inhibition at 1200 µg/mL (Exserohilum rostratum [28]): 23.2 mm; zone of inhibition at 600 µg/mL (Klebsiella pneumoniae [29]): 8.82 mm; zone of inhibition at 300 µg/mL (Fusarium oxysporum [30]): 3.08 mm; zone of inhibition at 1200 µg/mL (Colletotrichum falcatum [31]): 26.4 mm; zone of inhibition at 900 µg/mL (Bacillus subtilis [32]): 12.1 mm; zone of inhibition at 900 µg/mL (Candida albicans [33]): 9.56 mm; zone of inhibition at 900 µg/mL (Proteus vulgaris [34]): 8.04 mm; zone of inhibition at 900 µg/mL (Escherichia coli [35]): 14.1 mm; zone of inhibition at 900 µg/mL (Klebsiella pneumoniae [36]): 14 mm
